PubChem BioAssay (NCI)
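Where inhibition never reached the appropriate level, the endpoint shown equals the highest concentration tested. Otherwise, values were interpolated linearly from a five-concentration, 48-hour dose response in 96-well plates. Abbreviation: GI50, concentration required for 50% inhibition of growth. The concentration for full growth arrest is given as TGI.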

How the values were obtained:
Test in all cases: growth of human tumour cells (NCI), 48 h
IGROV1 ovarian = system: IGROV1 ovarian
SF-295 CNS = system: SF-295 CNS
NCI/ADR-RES ovarian = system: NCI/ADR-RES ovarian
HCC-2998 colon = system: HCC-2998 colon
NCI-H23 lung = system: NCI-H23 lung
SNB-75 CNS = system: SNB-75 CNS
MCF7 breast = system: MCF7 breast
CAKI-1 renal = system: CAKI-1 renal
U251 CNS = system: U251 CNS
UO-31 renal = system: UO-31 renal
NCI-H522 lung = system: NCI-H522 lung
HT29 colon = system: HT29 colon
HOP-92 NSCLC = system: HOP-92 NSCLC
SN12C renal = system: SN12C renal
HCT-116 colon = system: HCT-116 colon
MALME-3M melanoma = system: MALME-3M melanoma
MDA-MB-435 = system: MDA-MB-435
NCI-H226 lung = system: NCI-H226 lung
OVCAR-4 ovarian = system: OVCAR-4 ovarian
RPMI-8226 leukemia = system: RPMI-8226 leukemia
NCI-H460 lung = system: NCI-H460 lung
EKVX NSCLC = system: EKVX NSCLC
ACHN renal = system: ACHN renal
BT-549 breast = system: BT-549 breast
OVCAR-5 ovarian = system: OVCAR-5 ovarian
T-47D breast = system: T-47D breast
SR leukemia = system: SR leukemia
RXF 393 renal = system: RXF 393 renal
DU-145 prostate = system: DU-145 prostate
PC-3 prostate = system: PC-3 prostate
HOP-62 NSCLC = system: HOP-62 NSCLC
MDA-MB-231 breast = system: MDA-MB-231 breast
SK-OV-3 ovarian = system: SK-OV-3 ovarian
CCRF-CEM leukemia = system: CCRF-CEM leukemia
UACC-62 melanoma = system: UACC-62 melanoma
SF-268 CNS = system: SF-268 CNS
SF-539 CNS = system: SF-539 CNS
SK-MEL-5 melanoma = system: SK-MEL-5 melanoma
HL-60(TB) leukemia = system: HL-60(TB) leukemia
OVCAR-8 ovarian = system: OVCAR-8 ovarian
HCT-15 colon = system: HCT-15 colon
A498 renal = system: A498 renal
COLO 205 colon = system: COLO 205 colon
M14 melanoma = system: M14 melanoma
SK-MEL-28 melanoma = system: SK-MEL-28 melanoma
LOX IMVI melanoma = system: LOX IMVI melanoma
TK-10 renal = system: TK-10 renal
786-0 renal = system: 786-0 renal
SK-MEL-2 melanoma = system: SK-MEL-2 melanoma
K-562 leukemia = system: K-562 leukemia
UACC-257 melanoma = system: UACC-257 melanoma
A549 NSCLC = system: A549 NSCLC
HS 578T breast = system: HS 578T breast
KM12 colon = system: KM12 colon
SW-620 colon = system: SW-620 colon
SNB-19 CNS = system: SNB-19 CNS
MOLT-4 leukemia = system: MOLT-4 leukemia

Structure (SMILES): Oc1ccc(CSc2nnc(-c3ccccc3)n2-c2ccccc2)c2cccnc12
- GI50 (IGROV1 ovarian): 557 nM
- TGI (IGROV1 ovarian): 13000 nM
- GI50 (SF-295 CNS): 406 nM
- TGI (SF-295 CNS): 4280 nM
- GI50 (NCI/ADR-RES ovarian): 285 nM
- TGI (NCI/ADR-RES ovarian): 2340 nM
- GI50 (HCC-2998 colon): 728 nM
- TGI (HCC-2998 colon): > 100000 nM
- GI50 (NCI-H23 lung): 541 nM
- TGI (NCI-H23 lung): 11000 nM
- GI50 (SNB-75 CNS): 673 nM
- TGI (SNB-75 CNS): 5150 nM
- GI50 (MCF7 breast): 348 nM
- TGI (MCF7 breast): > 70200 nM
- GI50 (CAKI-1 renal): 559 nM
- TGI (CAKI-1 renal): 3440 nM
- GI50 (U251 CNS): 298 nM
- TGI (U251 CNS): 9460 nM
- GI50 (UO-31 renal): 315 nM
- TGI (UO-31 renal): 1560 nM
- GI50 (NCI-H522 lung): 402 nM
- TGI (NCI-H522 lung): 7190 nM
- GI50 (HT29 colon): 3960 nM
- TGI (HT29 colon): > 100000 nM
- GI50 (HOP-92 NSCLC): 227 nM
- TGI (HOP-92 NSCLC): 787 nM
- GI50 (SN12C renal): 416 nM
- TGI (SN12C renal): 25400 nM
- GI50 (HCT-116 colon): 362 nM
- TGI (HCT-116 colon): 4870 nM
- GI50 (MALME-3M melanoma): 1150 nM
- TGI (MALME-3M melanoma): 6190 nM
- GI50 (MDA-MB-435): 439 nM
- TGI (MDA-MB-435): > 100000 nM
- GI50 (NCI-H226 lung): 1900 nM
- TGI (NCI-H226 lung): > 79200 nM
- GI50 (OVCAR-4 ovarian): 706 nM
- TGI (OVCAR-4 ovarian): 13000 nM
- GI50 (RPMI-8226 leukemia): 448 nM
- TGI (RPMI-8226 leukemia): > 100000 nM
- GI50 (NCI-H460 lung): 351 nM
- TGI (NCI-H460 lung): 3470 nM
- GI50 (EKVX NSCLC): 771 nM
- TGI (EKVX NSCLC): 6400 nM
- GI50 (ACHN renal): 364 nM
- TGI (ACHN renal): 1290 nM
- GI50 (BT-549 breast): 590 nM
- TGI (BT-549 breast): > 26000 nM
- GI50 (OVCAR-5 ovarian): 2880 nM
- TGI (OVCAR-5 ovarian): > 100000 nM
- GI50 (T-47D breast): 625 nM
- TGI (T-47D breast): 4320 nM
- GI50 (SR leukemia): 404 nM
- TGI (SR leukemia): > 100000 nM
- GI50 (RXF 393 renal): 887 nM
- TGI (RXF 393 renal): 6120 nM
- GI50 (DU-145 prostate): 605 nM
- TGI (DU-145 prostate): 22200 nM
- GI50 (PC-3 prostate): 440 nM
- TGI (PC-3 prostate): > 47700 nM
- GI50 (HOP-62 NSCLC): 449 nM
- TGI (HOP-62 NSCLC): 7910 nM
- GI50 (MDA-MB-231 breast): 620 nM
- TGI (MDA-MB-231 breast): 11400 nM
- GI50 (SK-OV-3 ovarian): 481 nM
- TGI (SK-OV-3 ovarian): 6810 nM
- GI50 (CCRF-CEM leukemia): 396 nM
- TGI (CCRF-CEM leukemia): > 43400 nM
- GI50 (UACC-62 melanoma): 713 nM
- TGI (UACC-62 melanoma): 3630 nM
- GI50 (SF-268 CNS): 519 nM
- TGI (SF-268 CNS): 21100 nM
- GI50 (SF-539 CNS): 427 nM
- TGI (SF-539 CNS): 3270 nM
- GI50 (SK-MEL-5 melanoma): 522 nM
- TGI (SK-MEL-5 melanoma): 3220 nM
- GI50 (HL-60(TB) leukemia): 376 nM
- TGI (HL-60(TB) leukemia): 6910 nM
- GI50 (OVCAR-8 ovarian): 377 nM
- TGI (OVCAR-8 ovarian): > 22800 nM
- GI50 (HCT-15 colon): 348 nM
- TGI (HCT-15 colon): > 100000 nM
- GI50 (A498 renal): 1520 nM
- TGI (A498 renal): 11700 nM
- GI50 (COLO 205 colon): 4790 nM
- TGI (COLO 205 colon): > 100000 nM
- GI50 (M14 melanoma): 405 nM
- TGI (M14 melanoma): 2440 nM
- GI50 (SK-MEL-28 melanoma): 614 nM
- TGI (SK-MEL-28 melanoma): 55200 nM
- GI50 (LOX IMVI melanoma): 485 nM
- TGI (LOX IMVI melanoma): 2820 nM
- GI50 (TK-10 renal): 514 nM
- TGI (TK-10 renal): 4670 nM
- GI50 (786-0 renal): 923 nM
- TGI (786-0 renal): 5090 nM
- GI50 (SK-MEL-2 melanoma): 621 nM
- TGI (SK-MEL-2 melanoma): 6090 nM
- GI50 (K-562 leukemia): 403 nM
- TGI (K-562 leukemia): > 39700 nM
- GI50 (UACC-257 melanoma): 811 nM
- TGI (UACC-257 melanoma): 6650 nM
- GI50 (A549 NSCLC): 644 nM
- TGI (A549 NSCLC): > 33300 nM
- GI50 (HS 578T breast): 433 nM
- TGI (HS 578T breast): 12100 nM
- GI50 (KM12 colon): 534 nM
- TGI (KM12 colon): > 100000 nM
- GI50 (SW-620 colon): 443 nM
- TGI (SW-620 colon): > 100000 nM
- GI50 (SNB-19 CNS): 395 nM
- TGI (SNB-19 CNS): 14200 nM
- GI50 (MOLT-4 leukemia): 480 nM
- TGI (MOLT-4 leukemia): > 100000 nM
